This note sets out measurements from US20220348572A1, “BRIDGED HETEROCYCLYL-SUBSTITUTED PYRIMIDINE COMPOUND, PREPARATION METHOD THEREFOR, AND PHARMACEUTICAL USE THEREOF” (The National Institutes of Pharmaceutical R&D Co., Ltd., priority 2019, published 2022).

One experiment deals with T1, TYK2 kinase (Homo sapiens, UniProt P29597).
T1 sequence (P29597 897-1187 limits assumed): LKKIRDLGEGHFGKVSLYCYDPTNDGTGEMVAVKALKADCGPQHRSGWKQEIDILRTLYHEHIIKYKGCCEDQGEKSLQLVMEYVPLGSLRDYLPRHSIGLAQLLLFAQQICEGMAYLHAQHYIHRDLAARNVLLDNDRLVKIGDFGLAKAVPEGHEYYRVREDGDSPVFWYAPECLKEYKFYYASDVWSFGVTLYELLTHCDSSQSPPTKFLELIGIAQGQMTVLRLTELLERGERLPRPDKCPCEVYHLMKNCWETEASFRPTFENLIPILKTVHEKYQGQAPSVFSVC
The experiment is described as follows: In vitro inhibitory activity on Tyk2 kinase (ADP-Glo Kinase Assay). The format is biochemical. The settings on record: TYK2 kinase 4 nM, 1 mM ATP. The protocol:
Test Example 2: Determination of In Vitro Inhibitory Activity of the Compounds of the Present Invention on Tyk2 Kinase Experimental materials: TYK2 (Invitrogen, PV4790), ATP (Promega, V915B), ADP-Glo Kinase Assay (Promega, V9101), IRS1 (Signalchem, 140-58-1000). Sample preparation: The compounds of the present invention and the control product were dissolved in DMSO solvent respectively to formulate into 10 mM initial liquid. The maximum concentration of the compound was 10 μM, 3-fold dilution, 10 concentration gradients, and duplicate wells for each concentration gradient. Experimental process: 0.1 μL of the compound to be tested was transferred into a 384 reaction plate (PE, 6007290) via Echo and centrifuged at 1000 rpm/min for 1 min. 5 μL TYK2 kinase (final concentration of 4 nM) was transferred into the 384 reaction plate, which was then centrifuged at 1000 rpm/min for 1 min, and incubated at 25° C. for 15 min. 5 μL substrate mixture (1 mM ATP, IRS1 0.05 mg/ml, kinase buffer solution) was transferred into the 384 reaction plate, which was then centrifuged at 1000 rpm/min for 1 min, and incubated at 25° C. for 60 min. 10 μL ADP-Glo was transferred into the 384 reaction plate, which was then centrifuged at 1000 rpm/min for 1 min, and incubated at 25° C. for 40 min. 20 μL test solution was transferred into the 384 reaction plate, which was centrifuged at 1000 rpm/min for 1 min and incubated at 25° C. for 40 min. RLU (Relative luminescence unit) signal was read by using an Envision multifunctional plate reader. The signal intensity was used to characterize the degree of the kinase activity. […] IC50 value of 0-100 nM is shown as A, IC50 value of 100-300 nM is shown as B, IC50 value of 300-1000 nM is shown as C, and IC50 value which is greater than 1000 nM is shown as D. NT means not tested.

In another experiment the target is T2, JAK1 kinase (Homo sapiens, UniProt P23458).
T2 construct: purchased Invitrogen PV4744
T2 sequence (P23458 866-1154 limits assumed): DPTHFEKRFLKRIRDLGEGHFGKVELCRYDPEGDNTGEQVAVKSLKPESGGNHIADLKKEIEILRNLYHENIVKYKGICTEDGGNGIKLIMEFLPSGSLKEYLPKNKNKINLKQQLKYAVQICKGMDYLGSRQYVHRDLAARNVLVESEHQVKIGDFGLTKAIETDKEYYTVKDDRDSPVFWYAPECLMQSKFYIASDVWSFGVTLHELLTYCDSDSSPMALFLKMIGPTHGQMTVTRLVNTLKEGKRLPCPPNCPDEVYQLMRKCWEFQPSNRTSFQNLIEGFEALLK
The experiment is described as follows: In vitro inhibitory activity on JAK1 kinase (ADP-Glo Kinase Assay). The following applies: JAK1 kinase 4 nM, 1 mM ATP. It counts as biochemical. The procedure, abridged: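 JAK1 (4 nM final) preincubated with compound 15 min at 25° C., then substrate mix (1 mM ATP, IRS1 0.05 mg/ml) added for 60 min at 25° C. ADP-Glo luminescence read-out; top concentration 10 μM, 3-fold, 10 points, duplicates; IC50 reported in ranged classes.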

A value given as a limit tells only on which side of the number the result lay.

Take `Cn1cc(Nc2nccc(C3=CC4CCC(C3)N4C(=O)NCC#N)n2)cn1` (stereo not shown) [Compound 2, N-(cyanomethyl)-3-(2-((1-methyl-1H-pyrazol-4-yl)amino)pyrimidin-4-yl)-8-azabicyclo[3.2.1]oct-2-ene-8-carboxamide]: the IC50 against TYK2 kinase and at JAK1 kinase was < 100 nM in each case.
Regarding `Cn1cc(Nc2ncc(F)c(C3=CC4CCC(C3)N4C(=O)NCC#N)n2)cn1` (stereo not shown) [Compound 11, N-(cyanomethyl)-3-(5-fluoro-2-((1-methyl-1H-pyrazol-4-yl)amino)pyrimidin-4-yl)-8-azabicyclo[3.2.1]oct-2-ene-8-carboxamide], the IC50 against TYK2 kinase and at JAK1 kinase was < 100 nM throughout.
For `Cn1cc(Nc2nccc(C3=CC4CCC(C3)N4C(=O)c3cc(C#N)cs3)n2)cn1` (stereo not shown) [Compound 18, 5-(3-(2-((1-methyl-1H-pyrazol-4-yl)amino)pyrimidin-4-yl)-8-azabicyclo[3.2.1]oct-2-ene-8-formyl)thiophene-3-carbonitrile], the half-inhibitory concentration (IC50) on JAK1 kinase is > 1000 nM.
Same read-out and setting: the same measure for `Cn1cc(Nc2nccc(C3=CC4CCC(C3)N4C(=O)C34CC(C(F)(F)F)(C3)C4)n2)cn1` (stereo not shown) [Compound 71, (3-(2-((1-methyl-1H-pyrazol-4-yl)amino)pyrimidin-4-yl)-8-azabicyclo[3.2.1]oct-2-en-8-yl)(3-(trifluoromethyl)bicyclo[1.1.1]pentan-1-yl)methanone]: > 1000 nM; for `Cn1cc(Nc2nccc(C3=CC4CCC(C3)N4C(=O)c3ccc(C(F)(F)F)cn3)n2)cn1` (stereo not shown) [Compound 17, (3-(2-((1-methyl-1H-pyrazol-4-yl)amino)pyrimidin-4-yl)-8-azabicyclo[3.2.1]oct-2-en-8-yl)(5-(trifluoromethyl)pyridin-2-yl)methanone]: > 1000 nM.
In the case of `CC(C#N)C(=O)N1C2C=C(c3ccnc(Nc4cnn(C)c4)n3)CC1CC2` (stereo not shown) [Compound 62, 2-methyl-3-(3-(2-((1-methyl-1H-pyrazol-4-yl)amino)pyrimidin-4-yl)-8-azabicyclo[3.2.1]oct-2-en-8-yl)-3-oxopropionitrile], at JAK1 kinase, the IC50 was in the range of 100 to 300 nM.
`Cn1cc(Nc2nccc(C3=CC4CCC(C3)N4C(=O)CC#N)n2)cn1` (stereo not shown) [Compound 61, 3-(3-(2-((1-methyl-1H-pyrazol-4-yl)amino)pyrimidin-4-yl)-8-azabicyclo[3.2.1]oct-2-en-8-yl)-3-oxopropionitrile] came in with an IC50 against JAK1 kinase of 100 to 300 nM.
Still for that read-out and setting: the same measure for `Cn1cc(Nc2ncc(F)c(C3=C[C@@H]4CC[C@H](C3)N4C(=O)NCC(F)(F)F)n2)cn1` (single isomer, unassigned) [Compound 12-a]: < 100 nM; for `Cc1cnc(Nc2cnn(C3CC3)c2)nc1C1=CC2CCC(C1)N2C(=O)NCC(F)(F)F` (stereo not shown) [Compound 31, 3-(2-((1-Cyclopropyl-1H-pyrazol-4-yl)amino)-5-methylpyrimidin-4-yl)-N-(2,2,2-trifluoroethyl)-8-azabicyclo[3.2.1]oct-2-ene-8-carboxamide]: < 100 nM; for `Cn1cc(Nc2ncc(Cl)c(C3=C[C@H]4CC[C@@H](C3)N4C(=O)[C@@H]3CC3(F)F)n2)cn1` [Compound 23-b, ((1R,5S)-3-(5-chloro-2-((1-methyl-1H-pyrazol-4-yl)amino)pyrimidin-4-yl)-8-azabicyclo[3.2.1]oct-2-en-8-yl)((S)-2,2-difluorocyclopropyl)methanone]: < 100 nM.
The same measure, in the same setting: the same measure for `Cc1cnc(Nc2cn(C)nc2C)nc1C1=CC2CCC(C1)N2C(=O)NCC(F)(F)F` (stereo not shown) [Compound 26, 3-(2-((1,3-dimethyl-1H-pyrazol-4-yl)amino)-5-methylpyrimidin-4-yl)-N-(2,2,2-trifluoroethyl)-8-azabicyclo[3.2.1]oct-2-ene-8-carboxamide]: < 100 nM.
For the compound `Cn1cc(Nc2ncc(F)c(C3=CC4CCC(C3)N4C(=O)NCC(F)(F)F)n2)cn1` (stereo not shown) [Compound 12, 3-(5-fluoro-2-((1-methyl-1H-pyrazol-4-yl)amino)pyrimidin-4-yl)-N-(2,2,2-trifluoroethyl)-8-azabicyclo[3.2.1]oct-2-ene-8-carboxamide], the IC50 at TYK2 kinase and against JAK1 kinase was < 100 nM throughout.
As for `Cn1cc(Nc2nccc(C3=CC4CCC(C3)N4C(=O)C3(C)COC3)n2)cn1` (stereo not shown) [Compound 13, (3-(2-((1-methyl-1H-pyrazol-4-yl)amino)pyrimidin-4-yl)-8-azabicyclo[3.2.1]oct-2-en-8-yl)(3-methyloxetan-3-yl)methanone], at JAK1 kinase, the IC50 was > 1000 nM.
The same measure, in the same setting: the same measure for `Cn1cc(Nc2ncc(C(F)(F)F)c(C3=CC4CCC(C3)N4C(=O)NCC(F)(F)F)n2)cn1` (stereo not shown) [Compound 25, 3-(2-((1-Methyl-1H-pyrazol-4-yl)amino)-5-(trifluoromethyl)pyrimidin-4-yl)-N-(2,2,2-trifluoroethyl)-8-azabicyclo[3.2.1]oct-2-ene-8-carboxamide]: 300 to 1000 nM.
Same read-out and setting: the same measure for `C[C@@H](NC(=O)N1C2C=C(c3ccnc(Nc4cnn(C)c4)n3)CC1CC2)C(F)(F)F` (stereo partly drawn) [Compound 56, 3-(2-((1-Methyl-1H-pyrazol-4-yl)amino)pyrimidin-4-yl)-N-((R)-1,1,1-trifluoropropane-2-yl)-8-azabicyclo[3.2.1]oct-2-ene-8-carboxamide]: 300 to 1000 nM.
Still for that read-out and setting: the same measure for `O=C([C@@H]1CC1(F)F)N1C2C=C(c3ccnc(Nc4cnn(CCO)c4)n3)CC1CC2` (stereo partly drawn) [Compound 40, ((S)-2,2-difluorocyclopropyl)(3-(2-((1-(2-hydroxyethyl)-1H-pyrazol-4-yl)amino)pyrimidin-4-yl)-8-azabicyclo[3.2.1]oct-2-en-8-yl)methanone]: 100 to 300 nM.
For `Cn1cc(Nc2nccc(C3=CC4CCC(C3)N4C(=O)NCCC(F)(F)F)n2)cn1` (stereo not shown) [Compound 57, 3-(2-((1-methyl-1H-pyrazol-4-yl)amino)pyrimidin-4-yl)-N-(3,3,3-trifluoropropyl)-8-azabicyclo[3.2.1]oct-2-ene-8-carboxamide], the IC50 against JAK1 kinase lay within 300 to 1000 nM.
`Cn1cc(Nc2nccc(C3=CC4CCC(C3)N4C(=O)CC(F)F)n2)cn1` (stereo not shown) [Compound 66, 3,3-difluoro-1-(3-(2-((1-methyl-1H-pyrazol-4-yl)amino)pyrimidin-4-yl)-8-azabicyclo[3.2.1]oct-2-en-8-yl)-1-acetone] came in with an IC50 against JAK1 kinase of 100 to 300 nM.
Still for that read-out and setting: the same measure for `Cn1cc(Nc2ncc(Cl)c(C3=CC4CCC(C3)N4C(=O)[C@@H]3CC3(F)F)n2)cn1` (stereo partly drawn) [Compound 23, (3-(5-chloro-2-((1-methyl-1H-pyrazol-4-yl)amino)pyrimidin-4-yl)-8-azabicyclo[3.2.1]oct-2-en-8-yl)((S)-2,2-difluorocyclopropyl)methanone]: < 100 nM.
